Results on four molecules are retold here after patent publication US20080279932A1, “Compounds” (priority 2005, published 2008).

Marks after values point to notes of the source that are not given here.

Data set [1] in a line: Forced decomposition (HPLC assay, 3 days). It counts as physicochemical. Conditions: for HPLC Assay Results (External Standard): in % (unit assumed). As for the experimental part:
Procedure: Weigh 25 mg drug substance to a test tube and add 5 ml of appropriate solution.
(§1) One sample preparation per condition and one injection per sample.
Dilute sample to 1 mg/mL with water for HPLC analysis.
All salt forms were tested in bulk and water.
If the newer gradient method is selected then the order of elution of the acid degradation product and the amide degradation product are reversed, with the acid degradation product eluting first about 1.8 minutes and the amide degradation product eluting second about 2.5 minutes. Only the extended stability (3 month) samples were analyzed with the gradient HPLC method.

The nature of data set [2]: Dissociation constant (pKa's) of LAF237 free base and salt-forming acids. The class given is physicochemical. Particulars: LAF237 free base.
The nature of a further data set: Racemization study. The class given is physicochemical. The source says:
The free base in water chemically degraded and detection of racemization was not possible.

Data set [3] in a line: Stability of bulk material with excipients for 2 weeks at 50 C and 50 C/75% r.h. (HPLC assay). The class given is physicochemical. Conditions: for HPLC Assay Results (External Standard): in % (unit assumed); for stability compared with the free base of vildagliptin: bulk and excipient mixtures, 2 weeks. On the procedure:
Stability of Bulk Material with Excipients for 2 week at 50 C and 50 C/75% r.h.
Procedure for Dry Mixtures: 25 mg of free base drug substance was weighed into sample tube and approximately 2.5 grams of mixture A, or 25 mg of Lactose was added to the tube. Weight adjustments were made for each salt.
as §1
Controls: A control of the drug substance with the excipients will be prepared and analyzed as a time zero data point and to test the efficiency of extracting the drug substance from the excipients.
Mixture A: (oral) mannitol/Avicel PH 102/Cutina HR 57:38:5 (m/m/m)

The conditions of data set [4]: cited from earlier work; for Dissociation Constant (pKa's), first value: first pKa of the salt-forming acid (counter-ion); for Dissociation Constant (pKa's), second value: second pKa of the salt-forming acid (counter-ion).
[5] abbreviates: 1% in mixture A Dry Granulated, 2 weeks at 50/75% r.h.
Setting [6] is: 1% in mixture A Dry Granulated, 2 weeks at 50° C.
Where [7] appears, read: 1% in mixture A Dry Granulated, t0.
Where [8] appears, read: 50% in Lactose Dry Granulated, 2 weeks at 50/75% r.h.
Where [9] appears, read: 50% in Lactose Dry Granulated, 2 weeks at 50° C.
[10] abbreviates: 50% in Lactose Dry Granulated, t0.

In the case of `N#C[C@@H]1CCCN1C(=O)CNC12CC3CC(CC(O)(C3)C1)C2` [Free Base, (S)-1-[(3-hydroxy-1-adamantyl)amino]acetyl-2-cyano-pyrrolidine, reference compound], the “HPLC Assay Results (External Standard)” value in data set [1] (Bulk, 80° C. (3-day)) is 100.3; in data set [1] (Bulk, ambient (3-day)) it was 99.9; in data set [1] (H2O, 80° C. (3-day)), 7.5; in data set [1] (H2O, ambient (3-day)) it was 98.4; in data set [3] (setting [5]), 83.8*; in data set [3] (setting [6]) it was 94.2*. Moreover, the “HPLC Assay Results (External Standard)” value is 98.1* in data set [3] (setting [7]); 96.5 in data set [3] (setting [8]); 98.9 in data set [3] (setting [9]); 100.7 in data set [3] (setting [10]); 98.7 in data set [3] (Bulk, 2 weeks at 50/75% r.h.); 98.6 in data set [3] (Bulk, 2 weeks at 50° C.). Besides, the “HPLC Assay Results (External Standard)” value in data set [3] (Bulk, t0) is given as 100.0. Further, the stability in water result in data set [1] (free base in water, after 3 days) was “complete degradation”. This molecule came in with an LAF237 remaining in data set [1] (peroxide sample, after three days) of 3%. Moreover, the “stability under acidic conditions” value in data set [1] (room temperature) was “good stability”. Also, the pKa in data set [2] was determined as 7.86. For the same molecule, the racemization entry in the data set “Racemization study” (drug in the solid state) is “no sign of racemization”. In data set [3] (in the presence of mixture A), the “% loss in assay value” is given as “large losses”.
In the case of “Hydrochloride Salt of Vildagliptin [Example 1]”, the “HPLC Assay Results (External Standard)” value is listed as 98.8 in data set [1] (Bulk, 80° C. (3-day)); 98.8 in data set [1] (Bulk, ambient (3-day)); 95.3 in data set [1] (H2O, 80° C. (3-day)); 99.9 in data set [1] (H2O, ambient (3-day)); 95.5 in data set [3] (setting [5]); 96.6 in data set [3] (setting [6]). Besides, the “HPLC Assay Results (External Standard)” value in data set [3] (setting [7]) came out at 97.3; in data set [3] (setting [8]), 98.7; in data set [3] (setting [9]), 99.7; in data set [3] (setting [10]), 100.8; in data set [3] (Bulk, 2 weeks at 50/75% r.h.) it was 99.6; in data set [3] (Bulk, 2 weeks at 50° C.) it was 100.5. In addition, the “HPLC Assay Results (External Standard)” value in data set [3] (Bulk, t0) worked out at 100.7. Besides, the stability in water entry in data set [1] (water at 80° C. after 3 days) is listed as “remain stable”. For the same molecule, the racemization entry in the data set “Racemization study” (drug in the solid state) is listed as “no sign of racemization”; in the data set “Racemization study” (in solution in water, 80° C.), “no sign of racemization”; in the data set “Racemization study” (in solution in water, ambient) it was “no sign of racemization”. Also, the “stability compared with the free base of vildagliptin” value in data set [3] is “better stability”.
Consider “Hydrogen Fumarate Salt of Vildagliptin [Example 4]”, for which the “HPLC Assay Results (External Standard)” value was found to be 98.8 in data set [1] (Bulk, 80° C. (3-day)); 102.2 in data set [1] (Bulk, ambient (3-day)); 98.9 in data set [1] (H2O, 80° C. (3-day)); 101.9 in data set [1] (H2O, ambient (3-day)); 96.0 in data set [3] (setting [5]); 94.6 in data set [3] (setting [6]). The “HPLC Assay Results (External Standard)” value in data set [3] (setting [7]) stood at 96.1; in data set [3] (setting [8]), 98.2; in data set [3] (setting [9]), 98.9; in data set [3] (setting [10]), 99.5; in data set [3] (Bulk, 2 weeks at 50/75% r.h.), 98.9; in data set [3] (Bulk, 2 weeks at 50° C.), 99.0. Also, the “HPLC Assay Results (External Standard)” value in data set [3] (Bulk, t0) worked out at 104.0. Moreover, the stability in water entry in data set [1] (water at 80° C. after 3 days) was “remain stable”. For the same molecule, the “Dissociation Constant (pKa's), first value” in data set [4] is 3.03. Further, in data set [4], the “Dissociation Constant (pKa's), second value” is listed as 4.47. In addition, the “stability compared with the free base of vildagliptin” value in data set [3] is reported as “better stability”.
On to tartarate, for which, in data set [4], the “Dissociation Constant (pKa's), first value” is recorded as 2.98 and the “Dissociation Constant (pKa's), second value” is given as 4.34.

What is called pKa is the negative logarithm of the acid dissociation constant.
